The target of this assay is T1, human IDO1 (Homo sapiens, UniProt P14902).
T1 construct: expressed in transfected cells
T1 sequence (P14902 whole entry): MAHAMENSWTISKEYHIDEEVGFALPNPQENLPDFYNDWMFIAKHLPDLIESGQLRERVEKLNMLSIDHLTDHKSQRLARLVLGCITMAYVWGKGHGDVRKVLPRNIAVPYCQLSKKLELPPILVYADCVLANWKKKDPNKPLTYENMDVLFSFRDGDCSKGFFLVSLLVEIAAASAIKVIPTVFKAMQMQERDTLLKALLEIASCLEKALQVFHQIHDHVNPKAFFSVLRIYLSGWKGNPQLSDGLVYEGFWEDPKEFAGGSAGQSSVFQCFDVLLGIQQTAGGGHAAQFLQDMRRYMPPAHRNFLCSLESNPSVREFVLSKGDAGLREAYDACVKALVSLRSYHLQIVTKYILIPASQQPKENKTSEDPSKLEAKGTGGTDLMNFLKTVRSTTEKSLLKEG
Kind of assay: HEK Human IDO-1 inhibition assay (kynurenine readout, Ehrlich reagent, absorbance 490 nm). The assay is classed as cell-based. Particulars: human IDO1/HEK293 cells, incubated 20 hours with compound; 500 nM reference standard = 100% inhibition. In short, it runs like this:
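HEK293 cells stably expressing human IDO1, treated with compound for 20 h at 37 °C in phenol red-free RPMI/10% FBS. Kynurenine detected after TCA (0.2% final, 50 °C, 30 min) by Ehrlich reagent absorbance at 490 nm; IC50 normalised to 500 nM reference standard (100%) and DMSO (0%).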
As to `CCCN(Cc1ccc(Cl)cc1)c1ccc(OCC(=O)O)cc1NC(=O)Nc1ccc(Cl)cc1F` [Example 164, 2-(3-(3-(4-chloro-2-fluorophenyl)ureido)-4-((4-chlorobenzyl)(propyl)amino)phenoxy)acetic acid], the IC50 was less than 100 nM.
In the case of `CCCN(Cc1ccccc1)c1ccc(OCC(=O)O)cc1NC(=O)Cc1ccc(Cl)cc1F` [Example 165, 2-(4-(benzyl(propyl)amino)-3-(2-(4-chloro-2-fluorophenyl)acetamido)phenoxy)acetic acid] it was not below 100 nM; in that of `CCCN(Cc1ccccc1)c1ccc(OCC(=O)O)cc1NC(=O)Cc1ccc(C)cc1` [Example 166, 2-(4-(benzyl(propyl)amino)-3-(2-(p-tolyl)acetamido)phenoxy)acetic acid], not below 100 nM; in that of `CC(C)CN(Cc1ccc(Cl)cc1)c1ccc(OCC(=O)O)cc1NC(=O)Cc1ccc(Cl)cc1F` [Example 167, 2-(3-(2-(4-chloro-2-fluorophenyl)acetamido)-4-((4-chlorobenzyl)(isobutyl)amino)phenoxy)acetic acid], not below 100 nM.

Values taken from patent publication US10689331B2, “IDO inhibitors” (Bristol-Myers Squibb Company, priority 2015, dated 2020).
